pIC50: −log10 of the molar value.

Experimental findings from ChEMBL document CHEMBL1921675, “Synthesis and cytotoxic evaluation of novel paraconic acid analogs” (Bioorg Med Chem Lett, 2011) are described below.

Assay [1] concerns MCF7. Description: Antiproliferative activity against human MCF7 cells assessed as cellular growth inhibition at 10 uM after 72 hrs by MTS assay. The conditions noted are these: MCF7, 72 h, read-out: GI. Format: functional.
In assay [2] the test system is HL-60. Description: Antiproliferative activity against human HL60 cells assessed as cellular growth inhibition at 10 uM after 72 hrs by MTS assay. Type of assay: functional. The conditions noted are these: HL-60, 72 h, read-out: GI.
Assay [3] relates to HCT-116. In words: Antiproliferative activity against human HCT116 cells assessed as cellular growth inhibition at 10 uM after 72 hrs by MTS assay. Type of assay: functional. The conditions noted are these: HCT-116, 72 h, read-out: GI.
The subject of assay [4] is KB. Description: Antiproliferative activity against human KB cells assessed as cellular growth inhibition at 10 uM after 72 hrs by MTS assay. Format: functional. The following applies: read-out: GI.
The nature of assay [5]: Antiproliferative activity against human MCF7/R cells assessed as cellular growth inhibition at 10 uM after 72 hrs by MTS assay. Format: functional. The conditions noted are these: MCF7R, read-out: GI.
Assay [6] deals with HCT-116. In words: Antiproliferative activity against human HCT116 cells after 72 hrs by MTS assay. Type of assay: functional, cell-based. The conditions noted are these: HCT-116, 72 h.
The test system of the next assay is PC-3. Description: Antiproliferative activity against human PC3 cells assessed as cellular growth inhibition at 10 uM after 72 hrs by MTS assay. Type of assay: functional. The following applies: PC-3, 72 h, read-out: GI.
Assay [7] has as its system HL-60. In words: Antiproliferative activity against human HL60 cells after 72 hrs by MTS assay. Type of assay: functional, cell-based. The conditions noted are these: HL-60, 72 h.
A short description of assay [8]: Antiproliferative activity against human HL60R cells assessed as cellular growth inhibition at 10 uM after 72 hrs by MTS assay. Type of assay: functional. The conditions noted are these: read-out: GI.
Another assay has as its system SK-OV-3. In words: Antiproliferative activity against human SKOV3 cells assessed as cellular growth inhibition at 10 uM after 72 hrs by MTS assay. Type of assay: functional. The conditions noted are these: SK-OV-3, 72 h, read-out: GI.
Assay [9] relates to KB. Description: Antiproliferative activity against human KB cells after 72 hrs by MTS assay. Type of assay: functional, cell-based.
The subject of assay [10] is MCF7. Description: Antiproliferative activity against human MCF7 cells after 72 hrs by MTS assay. The following applies: MCF7, 72 h. Format: functional, cell-based.

Take `COC(=O)[C@@]1(Cc2ccc(OC)cc2)CC(=O)O[C@]1(C)c1ccccc1`: the inhibition of growth at 10 µM was found to be 59% with MCF7 [1], 68% in the assay with HL-60 [2], 56% in the assay on HCT-116 [3] and 98% in the assay with KB [4].

Turning to `COC(=O)C1(Cc2ccccc2)CC(=O)OC1c1ccccc1` (mixture of isomers), the inhibition of growth at 10 µM in the assay on MCF7 [1] was 0%; in the assay on HL-60 [2] it was 22%; in the assay on HCT-116 [3], 0%; in the assay with KB [4], 18%.

For `COC(=O)C1(Cc2ccc(OC)cc2)CC(=O)OC1c1ccccc1` (mixture of isomers), the inhibition of growth at 10 µM was found to be 0% in the assay with MCF7 [1], 15% with HL-60 [2], 4% in the assay on HCT-116 [3] and 19% with KB [4].

In the case of `COC(=O)c1ccc(CC2(C(=O)OC)CC(=O)OC2c2ccccc2)cc1` (mixture of isomers), the inhibition of growth at 10 µM was 0% with MCF7 [1], 19% with HL-60 [2], 0% with HCT-116 [3] and 12% in the assay on KB [4].

Take `COC(=O)C1(Cc2cccc(C(F)(F)F)c2)CC(=O)OC1c1ccccc1` (mixture of isomers): the inhibition of growth at 10 µM in the assay with MCF7 [1] worked out at 11%; in the assay with HL-60 [2], 34%; in the assay with HCT-116 [3], 14%; in the assay with KB [4], 39%.

For `COC(=O)C1(Cc2ccc3c(c2)OCO3)CC(=O)OC1c1ccccc1` (mixture of isomers), the inhibition of growth at 10 µM with MCF7 [1] worked out at 11%; in the assay on HL-60 [2] it was 18%; in the assay on HCT-116 [3], 18%; in the assay with KB [4], 0%.

On to `COC(=O)C1(Cc2ccc(OC)cc2)CC(=O)OC1c1ccccc1C(F)(F)F` (mixture of isomers), for which the inhibition of growth at 10 µM in the assay on MCF7 [1] is 0%; in the assay on HL-60 [2] it was 23%; in the assay on HCT-116 [3], 0%; in the assay with KB [4] it was 31%.

In the case of `COC(=O)C1(Cc2ccc(OC)cc2)CC(=O)OC1c1ccc(C(F)(F)F)cc1` (mixture of isomers), the inhibition of growth at 10 µM is 4% in the assay with MCF7 [1], 2% in the assay on HL-60 [2], 0% in the assay with HCT-116 [3] and 0% in the assay with KB [4].

For the compound `COC(=O)C1(Cc2ccc(OC)cc2)CC(=O)OC1c1ccc(F)cc1` (mixture of isomers), the inhibition of growth at 10 µM was 4% in the assay on MCF7 [1], 37% in the assay on HL-60 [2], 0% in the assay on HCT-116 [3] and 33% in the assay with KB [4].

For `COC(=O)C1(Cc2ccc(OC)cc2)CC(=O)OC1c1ccco1` (mixture of isomers), the inhibition of growth at 10 µM worked out at 0% in the assay on MCF7 [1], 29% with HL-60 [2], 0% in the assay with HCT-116 [3] and 32% in the assay with KB [4].

In the case of `CCCCCCC1OC(=O)CC1(Cc1ccc(OC)cc1)C(=O)OC` (mixture of isomers), the inhibition of growth at 10 µM in the assay on MCF7 [1] was determined as 28%; with HL-60 [2], 8%; in the assay with HCT-116 [3] it was 12%; in the assay on KB [4], 13%.

As to `COC(=O)C1(Cc2ccccc2)CC(=O)OC1(C)c1ccccc1` (mixture of isomers), the inhibition of growth at 10 µM with MCF7 [1] is 13%; in the assay on HL-60 [2], 22%; with HCT-116 [3], 9%; with KB [4] it was 6%.

Take `COC(=O)C1(Cc2ccc(OC)cc2)CC(=O)OC1(C)c1ccccc1` (mixture of isomers): the inhibition of growth at 10 µM in [5] was found to be 82%; in the assay with PC-3 it was 68%; in the assay on MCF7 [1], 56%; in assay [8], 92%; in the assay on HL-60 [2], 82%; in the assay on SK-OV-3, 76%. For the same compound, the inhibition of growth at 10 µM in the assay with HCT-116 [3] worked out at 61%; in the assay with KB [4], 95%. In addition, the pIC50 with HCT-116 [6] was 5.87; with HL-60 [7], 6.06; with KB [9], 6.23; in the assay on MCF7 [10], 5.56.

In the case of `COC(=O)C1(Cc2cccc(C(F)(F)F)c2)CC(=O)OC1(C)c1ccccc1` (mixture of isomers), the inhibition of growth at 10 µM in the assay on MCF7 [1] is 20%; with HL-60 [2], 21%; in the assay with HCT-116 [3], 22%; in the assay on KB [4] it was 21%.

Regarding `COC(=O)C1(Cc2ccc(OC)cc2)CC(=O)OC1(C)c1cccc(C(F)(F)F)c1` (mixture of isomers), the inhibition of growth at 10 µM in the assay with MCF7 [1] came to 46%; with HL-60 [2] it was 52%; in the assay with HCT-116 [3] it was 30%; in the assay on KB [4], 38%.

For `CCC1(c2ccccc2)OC(=O)CC1(Cc1ccc(OC)cc1)C(=O)OC` (mixture of isomers), the inhibition of growth at 10 µM in the assay on MCF7 [1] was determined as 21%; in the assay on HL-60 [2], 30%; in the assay on HCT-116 [3], 28%; with KB [4] it was 11%.

On to `COC(=O)C1(Cc2ccc(OC)cc2)CC(=O)OC1(c1ccccc1)C(F)(F)F` (mixture of isomers), for which the inhibition of growth at 10 µM was determined as 8% in the assay on MCF7 [1], 64% with HL-60 [2], 20% with HCT-116 [3] and 56% with KB [4].

In the case of `COC(=O)C1(Cc2ccccc2)CC(=O)OC12CCCCC2` (racemic), the inhibition of growth at 10 µM came to 1% in the assay with MCF7 [1], 4% with HL-60 [2], 0% in the assay on HCT-116 [3] and 7% in the assay on KB [4].
